# In patent US10214710B2, “Intercalated bleach compositions, related methods of manufacture and use” (The Clorox Company, priority 2013, dated 2019):
# Experiments:
# [1] = Differential scanning calorimetry (DSC) thermodynamic stability and adjuvant compatibility; type: physicochemical
# [2] = Relative ratings of solid hypochlorite bleach products; details: relative rating
# [3] = pH buffering and hypochlorite release on HCl addition; type: physicochemical
# Procedure: The buffering characteristics of the MIB compositions, as well as the ability to accelerate release of hypochlorite through addition of an acid were tested. It is believed that the MgO and/or Mg(OH)2 component present within the intercalated bleach compound acts to buffer the pH to a preferred region (e.g., about 8 to about 11.5) for enhanced hypochlorite stability. FIG. 4A plots the pH profile over time as hydrochloric acid (HCl) is added to the MIB aqueous solution at periodic intervals.
# FIG. 4B plots the concentration of hypochlorite in solution (ppm of OCl) as a function of how many millimoles of HCl are added.
# FIGS. 5A-5B plot similar data as described above with respect to FIGS. 4A-4B, but for a dibasic magnesium hypochlorite composition including 34% available chlorine by weight. […] As such, the dibasic magnesium hypochlorite is not capable of maintaining a relatively high pH for the solution, as are the MIB compositions. Such improved buffering capacity (i.e., the ability to maintain a higher pH for longer) greatly improves the stability of the bleach composition.
# [4] = Humidity stability, storage at 80° F. and 80% relative humidity; type: physicochemical
# Procedure: In addition to the stability testing described above, the magnesium intercalated bleach compositions were tested for their resistance to humidity (i.e., their ability to resist degradation upon exposure to humidity). The results were compared with the humidity stability of alternative solid hypochlorite releasing products, specifically dibasic magnesium hypochlorite and a mixture of calcium hypochlorite and magnesium oxide. […] As shown, the initial weight percent hypochlorite was measured. Some samples were stored open, while others were stored closed, and the weight percentage of remaining hypochlorite was measured after the 2 month storage.
# Two MIB samples were tested.
Molecule,Bleach Stability [2],Moisture Tolerance [2],Solution Clarity [2],other results
"[Ca+2].[O-]Cl.[O-]Cl [Calcium hypochlorite, calcium hypochlorite]",3,3,3,"energy given off in exothermic decomposition ([1]; FIG. 7B): 401 J/g; decomposition reaction temperature ([1]; endothermic for MIB, exothermic for calcium hypochlorite): about 212 °C"
O=C1CN(Cl)C(=O)N1Cl [Dichlorohydantoin],5,1,1,
"[Li+].[O-]Cl [Li(OCl)2, lithium hypochlorite]",1,3,5,
O=c1nc([O-])n(Cl)c(=O)n1Cl.[Na+] [sodium dichloroisocyanurate],,,,"exothermic decomposition reactions ([1]; temperature range of 10° C. to 200° C., FIG. 7C): no exothermic decomposition reactions"
Mg(OCl)2.2Mg(OH)2 [dibasic magnesium hypochlorite],,,,"hypochlorite (bleach) release as a function of HCl added ([3]; FIG. 4B / 5B): not significantly aided by acid addition; pH (buffering) recovery after HCl addition ([3]; HCl added at periodic intervals, FIG. 4A / 5A): significantly slower and less complete; hypochlorite remaining, open sample ([4]; 2 months, 80° F., 80% relative humidity, stored open): ~0 % by weight; initial hypochlorite concentration ([4]; before the 2 month storage, FIG. 3A): about 25 % by weight"
Trichloromelamine,,3,1,
sodium hypochlorite phosphate adduct [Na(OCl)2 phosphate adduct],1,3,5,
